# Experimental data published in patent US20250326859A1, “ANTI-CANCER ANTIBODIES, COMBINATION THERAPIES, AND USES THEREOF” (PRECISION BIOLOGICS, INC., priority 2022, published 2025).
# Assays:
# [1] = system: lung adenocarcinoma cells; test: Flow cytometry antigen expression, lung adenocarcinoma cell lines; type: binding, human; conditions: primary antibody at 10 ug/mL; multiple lung adenocarcinoma cell lines
# Experimental: (§1) FIG. 1. NEO-101, NEO-201 and NEO-301 Antigen Expression by Human Normal and Cancer Cell Lines. NEO-101, NEO-201 and NEO-301 specific antigen expression in various cell lines were detected by Flow Cytometry. Viable cell suspensions were incubated with primary antibody NEO-101, NEO-201 and NEO-301 separately at 10 ug/mL. Human IgG (10 ug/mL) was used as negative control. Goat anti-human IgG (Fc)-phycoerythrin conjugate was used for primary antibody detection; 7-ADD was used for excluding dead cells from analysis. The staining was measured by Flow Cytometry (Guava instrument, Millipore). Median fluorescent intensity (MFI) and % of stained cells was used for determining presence of specific antigen on each cell line.
# (§2) Antigen expression in cell lines of various origins were detected by Flow Cytometry. Viable cell suspensions were incubated with primary antibody NEO-101, NEO-201 and NEO-301 separately at 10 ug/mL. Human IgG (10 ug/mL) was used as negative control. Goat anti-human IgG (Fc)-phycoerythrin conjugate was used for primary antibody detection; 7-ADD was used for excluding dead cells from analysis. The staining was measured by Flow Cytometry (Guava instrument, Millipore). Median fluorescent intensity (MFI) and % of stained cells was used for determining presence of specific antigen on each cell line. […]
# skin cancer samples = test: IHC on cancer tissue microarray, skin cancer; type: binding, human; conditions: biotinylated antibody
# From the text: (§3) FIG. 2. Immunohistochemistry results from cancer tissue arrays. Immunohistochemistry method (IHC) was used for determining the presence of NEO-101/102, NEO-201 and NEO-301 antigens on paraffin microarrays and tissues. These primary antibodies (NEO-101/NEO-102, NEO-201 and NEO-301) were biotinylated prior to use. Paraffin tissue Microarrays and slides of tissues were reacted with the primary Ab after inactivating endogenous peroxidase and blocking the slides. Staining was detected with streptavidin-horseradish peroxidase conjugate and visualized with chromogen. Biotinylated human IgG1 was used as negative control and mouse anti-human cytokeratin monoclonal antibody was used as positive control. Antibody staining is measured as % and intensity of tumor epithelial cells and luminal secretion within the whole tissue section.
# (§4) Immunohistochemistry (IHC) was used for determining the presence of NEO-101/102, NEO-201 and NEO-301 antigens on paraffin microarrays and tissues. These primary antibodies (NEO-101/NEO-102, NEO-201 and NEO-301) were biotinylated prior to use. […] Staining was detected with streptavidin-horseradish peroxidase conjugate and visualized with chromogen. […] Antibody staining was measured as % and intensity of tumor epithelial cells and luminal secretion within the whole tissue section. […]
# lung cancer samples [2] = test: IHC on cancer tissue microarray, lung cancer; type: binding, human; conditions: biotinylated antibody
# From the text: as §3, §4
# Human tumor xenografts = test: In vivo localization of radiolabeled antibodies in tumor-bearing mice; design: species or system SCID or nude mice; conditions: 111In or 86Y label, intravenous, paper example in present tense
# From the text: Antibodies NEO-101, NEO-201, and NEO-301 are radiolabeled by conjugation to either ^111In or ^86Y using the acyclic chelate CHX-A″-DTPA. The conjugation molar ratios are empirically determined. Human tumor xenografts are introduced into SCID or nude mice, including the cell lines identified in FIG. 1 as being reactive with NEO-101, NEO-201, or NEO-301 in cell culture and optionally further cancer cell lines detected to bind those antibodies. Control xenografts non-reactive with these antibodies are also utilized. Following intravenous administration of radiolabeled antibodies in tumor-bearing mice, cell samples are harvested and analyzed. Labeled antibody biodistribution is determined with respect to the tumor and other tissues including liver and kidneys.
# Additionally, xenograft bearing mice are subjected to imaging studies including planar gamma-imaging performed at multiple time points to assess the stability of labeled antibody binding to the tumor cells and measure the level of accumulation of radiolabeled antibody in other tissues.
# [3] = system: lung squamous carcinoma cells; test: Flow cytometry antigen expression, lung squamous cell carcinoma cell lines; type: binding, human; conditions: primary antibody at 10 ug/mL; multiple lung squamous cell carcinoma cell lines
# Experimental: as §1, §2
# [4] = system: pancreatic cancer samples; test: IHC on cancer tissue microarray, pancreatic cancer; type: binding, human; conditions: biotinylated antibody
# From the text: as §3
# (§5) Immunohistochemistry (IHC) was used for determining the presence of NEO-101/102, NEO-201 and NEO-301 antigens on paraffin microarrays and tissues. These primary antibodies (NEO-101/NEO-102, NEO-201 and NEO-301) were biotinylated prior to use. Paraffin tissue microarrays and slides of tissues were reacted with the primary antibody after inactivating endogenous peroxidase and blocking the slides. Staining was detected with streptavidin-horseradish peroxidase conjugate and visualized with chromogen. Biotinylated human IgG1 was used as negative control and mouse anti-human cytokeratin monoclonal antibody was used as positive control. Antibody staining was measured as % and intensity of tumor epithelial cells and luminal secretion within the whole tissue section.
# (§6) The cancer cells and normal cells tested were of the following tissue origins: Colon, Pancreas, Lung, Larynx, Prostate, Esophagus, Uterus, Stomach, Skin, Breast, and Ovary.
# colon cancer samples [5] = test: IHC on paraffin tissue sections, colon cancer; type: binding, human; conditions: biotinylated antibody
# From the text: as §3, §5, §6
# uterus cancer samples = test: IHC on cancer tissue microarray, uterus cancer; type: binding, human; conditions: biotinylated antibody
# From the text: as §3, §4
# [6] = system: colorectal adenocarcinoma cells; test: Flow cytometry antigen expression, colorectal adenocarcinoma cell lines; type: binding, human; conditions: primary antibody at 10 ug/mL; multiple colorectal adenocarcinoma cell lines
# Experimental: as §1
# (§7) Antigen expression in cell lines of various origins were detected by Flow Cytometry. Viable cell suspensions were incubated with primary antibody NEO-101, NEO-201 and NEO-301 separately at 10 ug/mL. Human IgG (10 ug/mL) was used as negative control. Goat anti-human IgG (Fc)-phycoerythrin conjugate was used for primary antibody detection; 7-ADD was used for excluding dead cells from analysis. The staining was measured by Flow Cytometry (Guava instrument, Millipore). Median fluorescent intensity (MFI) and % of stained cells was used for determining presence of specific antigen on each cell line.
# (§8) The cell lines tested included breast cancer cells, cervical squamous carcinoma cells, colorectal adenocarcinoma cells, lung adenocarcinoma cells, lung carcinoma cells, lung squamous carcinoma cells, myelogenous leukemia cells, ovarian cancer cells, pancreatic adenocarcinoma cells, pancreatic carcinoma cells, prostate adenocarcinoma cells, and prostate cancer cells. Additionally, normal lung cells were tested.
# lung cancer samples [7] = test: IHC on paraffin tissue sections, lung cancer; type: binding, human; conditions: biotinylated antibody, relatively fewer samples tested
# From the text: as §3, §4
# colon cancer samples [8] = test: IHC on cancer tissue microarray, colon cancer; type: binding, human; conditions: biotinylated antibody
# From the text: as §3, §5, §6
# [9] = system: pancreatic cancer samples; test: IHC on paraffin tissue sections, pancreatic cancer; type: binding, human; conditions: biotinylated antibody
# From the text: as §3, §5, §6
# [10] = system: pancreatic adenocarcinoma cells; test: Flow cytometry antigen expression, pancreatic adenocarcinoma cell lines; type: binding, human; conditions: primary antibody at 10 ug/mL
# Experimental: as §1, §7, §8
# esophagus cancer samples = test: IHC on cancer tissue microarray, esophagus cancer; type: binding, human; conditions: biotinylated antibody
# From the text: as §3, §4
# breast cancer samples = test: IHC on cancer tissue microarray, breast cancer; type: binding, human; conditions: biotinylated antibody
# From the text: as §3, §4
# stomach cancer samples = test: IHC on cancer tissue microarray, stomach cancer; type: binding, human; conditions: biotinylated antibody
# From the text: as §3, §4
molecule,measurement,setting,value
NEO-201: Humanized 16C3 antibody; binds epitopes in CEACAM5 and CEACAM6,antigen expression detected by flow cytometry,[1],detected
same,cancer samples positive for the antigen,skin cancer samples,16%
same,cancer samples positive for the antigen,lung cancer samples [2],61%
same,binding of radiolabeled antibody to its antigen in vivo,Human tumor xenografts,able to bind their respective antigens
same,antigen expression detected by flow cytometry,[3],detected
same,cancer samples positive for the antigen,[4],86%
same,cancer samples positive for the antigen,colon cancer samples [5],94%
same,cancer samples positive for the antigen,uterus cancer samples,51%
same,antigen expression detected by flow cytometry,[6],detected
same,cancer samples positive for the antigen,lung cancer samples [7],90%
same,cancer samples positive for the antigen,colon cancer samples [8],85%
same,cancer samples positive for the antigen,[9],83%
same,antigen expression detected by flow cytometry,[10],detected
"NEO-301: Chimeric 31.1 antibody, 2 amino acid changes in HC constant domain, produced in high titer CHO-S cells; binds A33 antigen",cancer samples positive for the antigen,lung cancer samples [2],56%
same,binding of radiolabeled antibody to its antigen in vivo,Human tumor xenografts,able to bind their respective antigens
same,cancer samples positive for the antigen,esophagus cancer samples,43%
same,cancer samples positive for the antigen,breast cancer samples,78%
same,cancer samples positive for the antigen,[4],57%
same,cancer samples positive for the antigen,colon cancer samples [5],52%
same,antigen expression detected by flow cytometry,[6],detected
same,cancer samples positive for the antigen,colon cancer samples [8],87%
same,cancer samples positive for the antigen,[9],47%
same,antigen expression detected by flow cytometry,[10],detected
"NEO-101: Chimeric NPC-1 antibody, engineered in CHO-DG44 production cell clone 4B7; targets a variant of MUC5AC (protein) light: QVVLTQSPVIMSASPGEKVTMTCSASSSISYMYWYQQKPGTSPKRWIYDTSKLASGVPARFSGSGSGTSYSLTISNMEAGDAATYYCHQRDSYPWTFGGGTNLEIK heavy: QVQLKESGPDLVAPSQSLSITCTVSGFSLSKFGVNWVRQPPGKGLEWLGVIWGDGSTSYNSGLISRLSISKENSKSQVFLKLNSLQADDTATYYCVKPGGDYWGHGTSVTVSS",cancer samples positive for the antigen,stomach cancer samples,30%
same,binding of radiolabeled antibody to its antigen in vivo,Human tumor xenografts,able to bind their respective antigens
same,cancer samples positive for the antigen,[4],31%
same,cancer samples positive for the antigen,colon cancer samples [5],87%
same,cancer samples positive for the antigen,uterus cancer samples,41%
same,antigen expression detected by flow cytometry,[6],detected
same,cancer samples positive for the antigen,lung cancer samples [7],67%
same,cancer samples positive for the antigen,colon cancer samples [8],61%
same,cancer samples positive for the antigen,[9],82%
same,antigen expression detected by flow cytometry,[10],detected
